Like-named read-outs stand apart in the source and are kept apart here.
Tests used:
CB2 receptor = target: T1, CB2 receptor (Homo sapiens, UniProt P34972); experiment: cAMP assay (HitHunter) in CHO-K1-CB2 cells, agonist and antagonist modes; format: cell-based; details: for CB2 Mode of action: CHO-K1-CB2 cells, forskolin 20 μM, NA = no activity; for EC50 / CB2 Efficacy (%): agonist or antagonist mode; for EC50: antagonist mode against CP-55940 at EC90; for CB2 Efficacy (%): percentage of the response to CP-55940
T1 construct: host or cells: CHO-K1-CB2
T1 sequence (P34972 whole entry): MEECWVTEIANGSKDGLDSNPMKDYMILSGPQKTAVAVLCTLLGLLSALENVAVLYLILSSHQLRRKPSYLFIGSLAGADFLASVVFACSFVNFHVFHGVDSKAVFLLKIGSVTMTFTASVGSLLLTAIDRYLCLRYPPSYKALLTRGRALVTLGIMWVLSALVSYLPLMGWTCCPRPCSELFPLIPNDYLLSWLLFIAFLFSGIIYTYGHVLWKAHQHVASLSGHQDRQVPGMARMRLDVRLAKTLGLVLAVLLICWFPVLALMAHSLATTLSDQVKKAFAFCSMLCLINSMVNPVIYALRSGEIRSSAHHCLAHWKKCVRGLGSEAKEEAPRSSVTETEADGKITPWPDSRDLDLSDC

CB1 receptor = target: T2, CB1 receptor (Homo sapiens, UniProt P21554); experiment: cell-based; format: cell-based
T2 construct: host or cells: CHO-K1-CB1
T2 sequence (P21554 whole entry): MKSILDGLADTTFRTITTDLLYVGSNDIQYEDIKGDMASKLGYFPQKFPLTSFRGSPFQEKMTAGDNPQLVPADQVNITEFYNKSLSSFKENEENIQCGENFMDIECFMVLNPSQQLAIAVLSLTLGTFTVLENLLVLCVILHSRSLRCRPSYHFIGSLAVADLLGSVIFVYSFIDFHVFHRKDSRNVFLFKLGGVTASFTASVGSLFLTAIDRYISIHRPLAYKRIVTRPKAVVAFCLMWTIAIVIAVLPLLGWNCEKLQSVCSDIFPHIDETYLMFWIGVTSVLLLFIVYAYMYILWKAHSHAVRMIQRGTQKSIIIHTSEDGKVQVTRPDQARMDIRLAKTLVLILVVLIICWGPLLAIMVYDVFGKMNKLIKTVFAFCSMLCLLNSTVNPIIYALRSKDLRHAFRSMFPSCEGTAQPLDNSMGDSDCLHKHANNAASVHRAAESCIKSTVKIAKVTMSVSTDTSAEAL

human CB1 = target: human CB1; parameters: method as in PMID 28861508; details: reference standard contaminated with 2% Δ9-THC; read-out: approximate Ki at human CB1; cited from earlier work
human CB2 receptors = target: human CB2 receptors; parameters: method as in PMID 28861508; details: reference standard contaminated with 2% Δ9-THC; read-out: approximate Ki at human CB2; cited from earlier work
[1] = percentage of the response to CP-55940, agonist or antagonist mode

Compound	CB2 Mode of action (CB2 receptor)	EC50 (CB2 receptor; read-out: CB2 EC50) [µM]	CB2 Efficacy (%) (CB2 receptor)	CB1 Mode of action (CB1 receptor; CHO-K1-CB1 cells, forskolin 20 μM, NA = no activity)	CB1 Efficacy (%) (CB1 receptor; [1])	fold weaker than CBD at CB2 receptor as an antagonist (CB2 receptor; comparison of EC50 values)	EC50 (CB1 receptor) [nM]	CB1 Efficacy (%) (CB1 receptor)	CB1 Mode of action (CB1 receptor)	Ki (human CB1) [µM]	EC50 (CB2 receptor; CB2 EC50 (μM)) [µM]	Ki (human CB2 receptors) [µM]
COc1ccc(C(=O)c2c(C)n(CCN3CCOCC3)c3cc(I)ccc23)cc1 [AM-630]	Antagonist	0.146 ± 0.084	100	–	–	–	–	–	–	–	–	–
C=C(C)[C@@H]1CCC(C)=C[C@H]1c1c(O)cc(CCCCC)cc1O [CBD, cannabidiol, reference compound]	Antagonist	–	100	Antagonist	40	–	–	–	–	–	–	–
C=C(C)[C@@H]1CCC(C)=C[C@H]1c1c(O)cc(CCCCC)c(C(=O)O)c1O [CBDA, cannabidiolic acid]	–	> 100	−23	–	0	more than 10 fold	> 10000	–	–	–	–	–
CCCCCCC(C)(C)c1ccc([C@@H]2C[C@H](O)CC[C@H]2CCCO)c(O)c1 [CP-55940, reference compound]	Agonist	–	100	–	–	–	–	100	Agonist	–	–	–
CCCCCc1cc(O)c2c(c1)OC(C)(C)[C@@H]1CCC(C)=C[C@@H]21 [Δ^9-THC, Δ^9-tetrahydrocannabinol]	Weak partial agonist	–	20	–	–	–	–	–	–	–	–	–
CCCCCc1cc2c(c(O)c1C(=O)O)[C@@H]1C=C(C)CC[C@H]1C(C)(C)O2 [Δ^9-THCA, Δ^9-tetrahydrocannabinolic acid]	Weak agonist	–	100	–	–	–	1800 ± 700	100	Weak agonist	~3.1	30 ± 15	~12.5

Reference: publication PMC6757234, “Extractions of Medical Cannabis Cultivars and the Role of Decarboxylation in Optimal Receptor Responses” (Cannabis and Cannabinoid Research, 2019)
